Source: patent US20250026733A1, “DEUTERATED ANALOGS OF PYROLE INHIBITORS OF ERK, SYNTHESIS THEREOF AND INTERMEDIATES THERETO” (BIOMED VALLEY DISCOVERIES, INC., priority 2022, published 2025)
Like-named read-outs stand apart in the source and are kept apart here.

Tests used:
CYP2B6 mRNA expression [1] = test: In-vitro CYP induction study, CYP2B6 mRNA in cultured human hepatocytes; conditions: 20 μM, approximately 24 h
Method: (§3) A single preparation of characterized cryopreserved human hepatocytes isolated from non-transplantable human livers was treated in this study. Triplicate wells for each of the cultures were treated in 48-well plates with supplemented MCM (37±2° C.) containing 0.1% v/v DMSO (solvent control), one of three concentrations of each test article (1, 10 and 20 μM) or positive control CYP enzyme inducers omeprazole (50 μM), phenobarbital (1000 μM) or rifampin (20 μM). The cultures were incubated in a humidified culture chamber (37±2° C. at 95% relative humidity, 95/5% air/CO2). Approximately 24 h after treatment, hepatocytes were lysed in Buffer RLT reagent containing β-mercaptoethanol (100:1). The medium was aspirated, and Buffer RLT was added to each well. The cell lysates were prepared by repeated pipetting and shaking. Total RNA was isolated using the RNeasy Mini Kit. RNA quality and concentration were determined by measuring absorbance at 260 and 280 nm on a plate reader. Single-stranded cDNA was prepared from RNA with the RT Master Mix. The RT Master Mix comprises 10×RT buffer, 25× deoxyNTPs, 10× Random primers, RNase Inhibitor (20 U/μL), MultiScribe reverse transcriptase (50 U/μL) and RNase-free water. The RT Master Mix was added to each RNA sample to complete the components of the reaction. No template controls (NTCs) were included in the analysis. For the NTC reactions, RNase-free water was added in place of the RNA sample. The prepared cDNA samples were stored at −20±5° C. following analysis by qRT-PCR. Each PCR was performed in quadruplicate. A Primer Mix was prepared for each Gene Expression assay. A typical Primer Mix contained TaqMan Fast Advanced Master Mix (1×), Gene Expression Assay (1×, 900 nM forward and reverse primers) and RNase-free water. The Reaction Mix was prepared by adding the Primer Mix to cDNA. A percentage of samples (no less than 10%) included NAC (no amplification control) samples. […] Reactions were analyzed on a PCR sequence detection system. The relative quantity of the target cDNA compared with that of the control cDNA (GAPDH) was determined by the ΔΔCt method. Relative quantitation measures the change in mRNA expression in a test sample relative to that in a control sample (e.g., DMSO). This method assumes that the efficiency of the target amplification and the efficiency of the endogenous control amplification are approximately equal.

CYP2C9 = target: T1, CYP2C9 (Homo sapiens, UniProt P11712); test: In-vitro CYP inhibition study, CYP2C9; format: in vitro ADME; conditions: human liver microsomes, substrate Diclofenac (12 μM)
T1 construct: from tissue; host or cells: human liver microsomes, mixed-gender pool of 200
Method: (§1) Incubations were conducted using a cocktail of seven prototypical CYP substrates to ascertain the potential of each test article to inhibit the metabolism of concomitantly administered drugs. A mixed-gender pool of 200 human liver microsomal samples was used for this study. Incubations were conducted at approximately 37° C. in 200 μL incubation mixtures (pH 7.4) containing water, potassium phosphate buffer (50 mM), MgCl2 (3 mM), EDTA (1 mM), an NADPH regenerating system (NADP [1 mM], glucose 6 phosphate [5 mM], glucose 6 phosphate dehydrogenase [1 Unit/mL]), and probe substrate (i.e., a seven substrate cocktail) at the final concentrations indicated in Table 9. Reactions were initiated by the addition of NADPH-regenerating system and were automatically terminated at approximately 5 minutes by the addition of internal standard mixed in stop reagent, acetonitrile. The samples were centrifuged at 920×g for 10 minutes at 10° C. The supernatant fractions were analyzed by LC-MS/MS. To examine its ability to act as a time-dependent inhibitor of CYP enzymes, each test article (at the same concentrations used to evaluate direct inhibition, (i.e. 0, 0.02, 0.06, 0.2, 0.6, 2, 6, 20 μM) was pre-incubated at 37±2° C. with NADPH-fortified human liver microsomes for approximately 30 minutes. The pre-incubations were initiated by the addition of NADPH-regenerating system. After 30 min, probe substrate incubations were initiated by the addition of probe substrate cocktail. Incubations were terminated and samples were analyzed by LC-MS/MS. When inhibition was observed, the data were processed with a LIMS for the determination of IC50 values by utilizing the Levenberg-Marquardt algorithm to perform non-linear regression fitting of the data to the following 4-parameter sigmoidal-logistic IC50 equation:
(§2) As percent of control values are utilized, the minimum value (Min) is set to zero and the maximum value (Max) is set to 100 (or other values, as appropriate). The LIMS calculates an IC50 value only when it lies within the concentration range of the inhibitor studied. Therefore, when an IC50 value falls outside the concentration range studied, the IC50 values are reported to be greater than the highest concentration of the test article evaluated.

CYP2C8 = target: T2, CYP2C8 (Homo sapiens, UniProt P10632); test: In-vitro CYP inhibition study, CYP2C8; format: in vitro ADME; conditions: human liver microsomes, substrate Paclitaxel (5 μM)
T2 construct: from tissue; host or cells: human liver microsomes, mixed-gender pool of 200
T2 sequence (P10632 1-490): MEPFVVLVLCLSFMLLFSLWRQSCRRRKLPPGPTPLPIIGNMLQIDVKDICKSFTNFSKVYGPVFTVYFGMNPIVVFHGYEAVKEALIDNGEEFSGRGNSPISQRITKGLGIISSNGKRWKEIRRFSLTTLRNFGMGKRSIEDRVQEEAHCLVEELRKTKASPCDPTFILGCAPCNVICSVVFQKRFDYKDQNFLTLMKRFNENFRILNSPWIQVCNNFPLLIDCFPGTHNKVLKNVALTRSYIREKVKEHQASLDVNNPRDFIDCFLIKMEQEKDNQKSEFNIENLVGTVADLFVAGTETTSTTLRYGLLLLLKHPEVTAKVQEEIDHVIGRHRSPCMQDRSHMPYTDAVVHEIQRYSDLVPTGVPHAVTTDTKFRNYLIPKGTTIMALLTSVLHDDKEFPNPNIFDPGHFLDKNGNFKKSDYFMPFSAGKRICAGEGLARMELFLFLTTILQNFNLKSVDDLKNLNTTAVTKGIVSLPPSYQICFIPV
Method: as §1, §2

CYP1A2 mRNA expression [2] = test: In-vitro CYP induction study, CYP1A2 mRNA in cultured human hepatocytes; conditions: approximately 24 h
Method: as §3

CYP2B6 = target: T3, CYP2B6 (Homo sapiens, UniProt P20813); test: In-vitro CYP inhibition study, CYP2B6; format: in vitro ADME; conditions: human liver microsomes, substrate Bupropion (90 μM)
T3 construct: from tissue; host or cells: human liver microsomes, mixed-gender pool of 200
T3 sequence (P20813 1-491): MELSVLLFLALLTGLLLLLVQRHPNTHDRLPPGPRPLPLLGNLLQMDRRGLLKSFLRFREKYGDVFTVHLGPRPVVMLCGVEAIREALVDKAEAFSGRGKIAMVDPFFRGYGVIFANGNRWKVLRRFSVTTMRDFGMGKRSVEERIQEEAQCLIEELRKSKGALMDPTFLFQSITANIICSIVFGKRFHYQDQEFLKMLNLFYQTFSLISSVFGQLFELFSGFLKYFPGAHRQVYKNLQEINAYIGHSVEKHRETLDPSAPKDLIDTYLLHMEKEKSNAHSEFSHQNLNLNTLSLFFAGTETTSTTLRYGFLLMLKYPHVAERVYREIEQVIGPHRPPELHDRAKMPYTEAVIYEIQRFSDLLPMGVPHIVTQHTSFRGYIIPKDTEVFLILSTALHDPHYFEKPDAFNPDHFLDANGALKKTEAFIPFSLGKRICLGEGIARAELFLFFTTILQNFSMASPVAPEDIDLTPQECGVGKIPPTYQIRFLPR
Method: as §1, §2

CYP1A2 mRNA expression [3] = conditions: human, hepatocytes, 24 h
Method: as §3

CYP3A4/5 = test: In-vitro CYP inhibition study, CYP3A4/5; format: in vitro ADME; conditions: both sexes, human, human liver microsomes, pH 7.4, probe Midazolam (3 μM), substrate Midazolam (3 μM)
Method: as §1, §2

CYP3A4 mRNA expression = conditions: human, hepatocytes, 24 h
Method: as §3

CYP2C19 = target: T4, CYP2C19 (Homo sapiens, UniProt P33261); test: In-vitro CYP inhibition study, CYP2C19; format: in vitro ADME; conditions: human liver microsomes, substrate S-Mephenytoin (60 μM)
T4 construct: from tissue; host or cells: human liver microsomes, mixed-gender pool of 200
Method: as §1, §2

CYP2B6 mRNA expression [4] = conditions: human, hepatocytes, 24 h
Method: as §3

T4 sequence (P33261 whole entry): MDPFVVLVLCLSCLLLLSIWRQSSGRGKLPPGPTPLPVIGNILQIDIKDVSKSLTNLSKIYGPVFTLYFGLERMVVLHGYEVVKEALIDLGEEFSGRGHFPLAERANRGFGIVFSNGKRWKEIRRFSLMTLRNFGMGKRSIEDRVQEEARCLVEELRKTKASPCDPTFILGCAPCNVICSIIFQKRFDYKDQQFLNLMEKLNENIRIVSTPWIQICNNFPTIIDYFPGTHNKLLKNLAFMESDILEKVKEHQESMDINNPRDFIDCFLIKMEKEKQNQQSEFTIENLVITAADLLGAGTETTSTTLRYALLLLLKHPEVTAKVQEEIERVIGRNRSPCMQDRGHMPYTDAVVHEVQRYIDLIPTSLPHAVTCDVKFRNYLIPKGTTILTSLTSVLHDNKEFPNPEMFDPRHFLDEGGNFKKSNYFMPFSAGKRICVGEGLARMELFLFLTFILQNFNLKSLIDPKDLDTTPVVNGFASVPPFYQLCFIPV
T1 sequence (P11712 whole entry): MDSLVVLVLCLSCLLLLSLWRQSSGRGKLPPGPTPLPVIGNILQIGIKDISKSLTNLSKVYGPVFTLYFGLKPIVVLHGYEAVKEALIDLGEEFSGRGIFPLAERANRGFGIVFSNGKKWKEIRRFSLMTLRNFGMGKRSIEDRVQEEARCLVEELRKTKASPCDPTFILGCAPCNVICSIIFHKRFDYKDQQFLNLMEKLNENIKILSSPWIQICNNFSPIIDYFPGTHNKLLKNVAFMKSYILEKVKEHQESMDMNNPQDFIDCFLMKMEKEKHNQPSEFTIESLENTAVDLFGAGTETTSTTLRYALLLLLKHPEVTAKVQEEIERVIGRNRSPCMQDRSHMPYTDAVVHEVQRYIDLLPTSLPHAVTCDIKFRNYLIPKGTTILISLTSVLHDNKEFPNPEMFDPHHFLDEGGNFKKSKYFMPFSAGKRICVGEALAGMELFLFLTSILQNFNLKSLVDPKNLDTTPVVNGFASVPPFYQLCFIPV

Compound: CC(C)Nc1cc(-c2c[nH]c(C(=O)N[C@H](CO)c3cccc(Cl)c3)c2)c(Cl)cn1 [Ulixertinib, reference compound]
- Fold Change in mRNA Expression of CYP2B6 (CYP2B6 mRNA expression [1]): 2.43 fold
- IC50 (CYP2C9; preincubation 0 min): 3.1 µM
- IC50 (CYP2C9; preincubation 30 min): 3.4 µM
- IC50 (CYP2C8; preincubation 0 min): 8.5 µM
- IC50 (CYP2C8; preincubation 30 min): 9.2 µM
- Fold Change in mRNA Expression of CYP1A2 (CYP1A2 mRNA expression [2]; 10 μM): 6.63 fold
- IC50 (CYP2B6; preincubation 0 min): 11 µM
- IC50 (CYP2B6; preincubation 30 min): 16 µM
- Fold Change in mRNA Expression of CYP1A2 (CYP1A2 mRNA expression [3]; 1 μM): 3.73 fold
- Fold Change in mRNA Expression of CYP1A2 (CYP1A2 mRNA expression [3]; 20 μM): 6.42 fold
- IC50 at 5 min (CYP3A4/5; preincubation 0 min): > 20 µM
- IC50 at 5 min (CYP3A4/5; preincubation 30 min): 14 µM
- Fold Change in mRNA Expression of CYP3A4 (CYP3A4 mRNA expression; 1 μM): 1.52 fold
- Fold Change in mRNA Expression of CYP3A4 (CYP3A4 mRNA expression; 10 μM): 6.84 fold
- IC50 (CYP2C19; preincubation 0 min): 8.5 µM
- IC50 (CYP2C19; preincubation 30 min): 9.2 µM
- Fold Change in mRNA Expression of CYP2B6 (CYP2B6 mRNA expression [4]; 1 μM): 1.25 fold
- Fold Change in mRNA Expression of CYP2B6 (CYP2B6 mRNA expression [4]; 10 μM): 1.99 fold

Compound: Cl.[2H]C(C)(C)Nc1cc(-c2c[nH]c(C(=O)N[C@H](CO)c3cccc(Cl)c3)c2)c(Cl)cn1 [Formula 21A]
- Fold Change in mRNA Expression of CYP2B6 (CYP2B6 mRNA expression [1]): 2.22 fold
- IC50 (CYP2C9; preincubation 0 min): 3.4 µM
- IC50 (CYP2C9; preincubation 30 min): 4.4 µM
- IC50 (CYP2C8; preincubation 0 min): 19 µM
- IC50 (CYP2C8; preincubation 30 min): 19 µM
- Fold Change in mRNA Expression of CYP1A2 (CYP1A2 mRNA expression [2]; 1 μM): 2.22 fold
- Fold Change in mRNA Expression of CYP1A2 (CYP1A2 mRNA expression [2]; 10 μM): 8.51 fold
- IC50 (CYP2B6; preincubation 0 min): 17 µM
- IC50 (CYP2B6; preincubation 30 min): 19 µM
- Fold Change in mRNA Expression of CYP1A2 (CYP1A2 mRNA expression [3]; 20 μM): 4.00 fold
- IC50 at 5 min (CYP3A4/5; preincubation 0 min): > 20 µM
- IC50 at 5 min (CYP3A4/5; preincubation 30 min): 17 µM
- Fold Change in mRNA Expression of CYP3A4 (CYP3A4 mRNA expression; 1 μM): 1.39 fold
- Fold Change in mRNA Expression of CYP3A4 (CYP3A4 mRNA expression; 10 μM): 5.29 fold
- IC50 (CYP2C19; preincubation 0 min): 19 µM
- IC50 (CYP2C19; preincubation 30 min): 19 µM
- Fold Change in mRNA Expression of CYP2B6 (CYP2B6 mRNA expression [4]; 1 μM): 1.08 fold
- Fold Change in mRNA Expression of CYP2B6 (CYP2B6 mRNA expression [4]; 10 μM): 2.04 fold

Compound: [2H]C([2H])([2H])C([2H])(Nc1cc(-c2c[nH]c(C(=O)N[C@H](CO)c3cccc(Cl)c3)c2)c(Cl)cn1)C([2H])([2H])[2H] [Formula 18, 4-(5-chloro-2-((propan-2-yl-d7)amino)pyridin-4-yl)-N-(1-(3-chlorophenyl)-2-hydroxyethyl)-1H-pyrrole-2-carboxamide]
- Fold Change in mRNA Expression of CYP2B6 (CYP2B6 mRNA expression [1]): 2.54 fold
- IC50 (CYP2C9; preincubation 0 min): 3.5 µM
- IC50 (CYP2C9; preincubation 30 min): 3.9 µM
- IC50 (CYP2C8; preincubation 0 min): 9.6 µM
- IC50 (CYP2C8; preincubation 30 min): 11 µM
- Fold Change in mRNA Expression of CYP1A2 (CYP1A2 mRNA expression [2]; 20 μM): 7.56 fold
- IC50 (CYP2B6; preincubation 0 min): 12 µM
- IC50 (CYP2B6; preincubation 30 min): 16 µM
- Fold Change in mRNA Expression of CYP1A2 (CYP1A2 mRNA expression [3]; 1 μM): 3.02 fold
- Fold Change in mRNA Expression of CYP1A2 (CYP1A2 mRNA expression [3]; 10 μM): 5.94 fold
- IC50 at 5 min (CYP3A4/5; preincubation 0 min): > 20 µM
- IC50 at 5 min (CYP3A4/5; preincubation 30 min): 14 µM
- Fold Change in mRNA Expression of CYP3A4 (CYP3A4 mRNA expression; 1 μM): 1.83 fold
- Fold Change in mRNA Expression of CYP3A4 (CYP3A4 mRNA expression; 10 μM): 5.39 fold
- IC50 (CYP2C19; preincubation 0 min): 9.6 µM
- IC50 (CYP2C19; preincubation 30 min): 11 µM
- Fold Change in mRNA Expression of CYP2B6 (CYP2B6 mRNA expression [4]; 1 μM): 1.36 fold
- Fold Change in mRNA Expression of CYP2B6 (CYP2B6 mRNA expression [4]; 10 μM): 1.90 fold

Compound: [2H]C([2H])([2H])C(Nc1cc(-c2c[nH]c(C(=O)N[C@H](CO)c3cccc(Cl)c3)c2)c(Cl)cn1)C([2H])([2H])[2H] [Formula 19, 4-(5-chloro-2-((propan-2-yl-1,1,1,3,3,3-d6)amino)pyridin-4-yl)-N-(1-(3-chiorophenyl)-2-hydroxyethyl)-1H-pyrrole-2-carboxamide]
- Fold Change in mRNA Expression of CYP2B6 (CYP2B6 mRNA expression [1]): 2.44 fold
- IC50 (CYP2C9; preincubation 0 min): 3.1 µM
- IC50 (CYP2C9; preincubation 30 min): 4.3 µM
- IC50 (CYP2C8; preincubation 0 min): 10 µM
- IC50 (CYP2C8; preincubation 30 min): 12 µM
- Fold Change in mRNA Expression of CYP1A2 (CYP1A2 mRNA expression [2]; 10 μM): 12.1 fold
- IC50 (CYP2B6; preincubation 0 min): 14 µM
- IC50 (CYP2B6; preincubation 30 min): 16 µM
- Fold Change in mRNA Expression of CYP1A2 (CYP1A2 mRNA expression [3]; 1 μM): 3.57 fold
- Fold Change in mRNA Expression of CYP1A2 (CYP1A2 mRNA expression [3]; 20 μM): 9.52 fold
- IC50 at 5 min (CYP3A4/5; preincubation 0 min): > 20 µM
- IC50 at 5 min (CYP3A4/5; preincubation 30 min): 13 µM
- Fold Change in mRNA Expression of CYP3A4 (CYP3A4 mRNA expression; 1 μM): 2.06 fold
- Fold Change in mRNA Expression of CYP3A4 (CYP3A4 mRNA expression; 10 μM): 9.42 fold
- IC50 (CYP2C19; preincubation 0 min): 10 µM
- IC50 (CYP2C19; preincubation 30 min): 12 µM
- Fold Change in mRNA Expression of CYP2B6 (CYP2B6 mRNA expression [4]; 1 μM): 1.47 fold
- Fold Change in mRNA Expression of CYP2B6 (CYP2B6 mRNA expression [4]; 10 μM): 2.10 fold
